Source: patent US4681877A, “Pivaloyloxymethyl 7-β-[2-(2-amino-4-thiazolyl)-2-methoxyiminoacetamido]-3-(2-amino-1, 3-thiadiazolyl-5-thiomethyl)-3-cepheme-4-carboxylate and pharmaceutical composition containing the same” (Kureha Kagaku Kogyo Kabushiki Kaisha, priority 1982, dated 1987)
Like-named read-outs stand apart in the source and are kept apart here.

Tests used:
test bacterial species = experiment: Anti-bacterial activity (MIC) in general, all test species; format: cell-based; conditions: against the test bacterial species
Protocol: (§1) The minimum inhibiting concentration(MIC) of the compound represented by the formula(I) and the compound represented by the formula(V) was measured according to the standard method of Japan Society of Chemotherapy against each of the following bacterial species:
Escherichia coli IFO 12734
Staphylococcus aureus IAM 1011
Proteus vulgaris IAM 1025
Pseudomonas aeruginosa IAM 1514 and
Serratia marcescens IAM 1223

[1] = system: Serratia marcescens IAM 1223; experiment: Minimum growth-inhibition concentration (MIC), Serratia marcescens IAM 1223; format: cell-based; conditions: Mueller-Hinton agar, 18 to 24 hours at 37° C.
Protocol: as §1
(§2) Anti-bacterial activity of the compounds respectively produced in Examples 1, 2 and 3 was determined according to the standard method of Japanese Society of Chemotherapy as follows.
(§3) Each of the following bacterial strains was inoculated in Mueller-Hinton's culture medium and cultured for 18 to 48 hours at 37° C. to obtain a standard bacterial liquid containing 10^6 cells/ml.
(§4) Separately, agar plates were prepared by adding each of the solutions of each of the compounds respectively produced in Examples, 1, 2 and 3 at predetermined concentrations in amount of one ninth by weight to Mueller-Hinton's culture medium.

Escherichia coli = experiment: Effect on the experimental infectious disease on mice; format: in vivo, Escherichia coli; ddY-strain SPF mice; conditions: orally 100 mg/kg, ddY-strain SPF mice, 1.4×10^8 cells E. coli i.p.
Protocol: To each of the two groups of ddY-strain SPF mice, 1.4×10^8 cells of Escherichia coli was intraperitoneously inoculated to be infected, and just after or after 4 hours of the inoculation, the compound represented by the formula (I) was orally administered at a dose rate of 100 mg/kg.

Escherichia coli IFO = experiment: Effects on infectious disease (mice infected with Escherichia coli IFO); format: in vivo; conditions: orally 100 mg/kg just after and 4 hours after inoculation; 7 days
Protocol: After inoculating a group consisting of 20 mice with Escherichia coli IFO intraperitoneously to be infected, the compound represented by the formula(V) was orally administered to the mice just after and after 4 hours of inoculation at a dose rate of 100 mg/kg body weight, and after 7 days of the administration, the effectiveness of the compound was judged by observing the death rate of each group of mice by the infection.
In the same manner, after inoculating another group consisting of 20 mice with Escherichia coli IFO intraperitoneously to be infected, the compound represented by the formula(I) was orally administered thereto just after and after 4 hours of inoculation at the dose rate of 100 mg/kg body weight, and after 7 days of the administration, the effectiveness of the compound was judged by observing the rate of survival of the mice.

[2] = system: Staphylococcus aureus IAM 1011; experiment: Minimum growth-inhibition concentration (MIC), Staphylococcus aureus IAM 1011; format: cell-based; conditions: Mueller-Hinton agar, 18 to 24 hours at 37° C.
Protocol: as §1, §2, §3, §4

E. coli IFO 12734 = experiment: Minimum growth-inhibition concentration (MIC), E. coli IFO 12734; format: cell-based, Escherichia coli; conditions: Mueller-Hinton agar, 18 to 24 hours at 37° C.
Protocol: as §1, §2, §3, §4

[3] = system: Pseudomonas aeruginosa IAM 1514; experiment: Minimum growth-inhibition concentration (MIC), Pseudomonas aeruginosa IAM 1514; format: cell-based; conditions: Mueller-Hinton agar, 18 to 24 hours at 37° C.
Protocol: as §1, §2, §3, §4

E. coli W 3636 = experiment: Minimum growth-inhibition concentration (MIC), E. coli W 3636; format: cell-based, Escherichia coli; conditions: Mueller-Hinton agar, 18 to 24 hours at 37° C.
Protocol: as §1, §2, §3, §4

[4] = Stability to rat liver homogenate (S-9 mix): rate of maintaining the antibacterial activity; format: in vitro ADME; conditions: S-9 mix
Protocol: For verifying the stability of the compound represented by the formula (I), 7-beta-[2-(2-amino-4-thiazolyl)-2-methoxyiminoacetamindo]-3-(-2-amino-1,3,4-thiadiazoyl-5-thiomethyl)-3-cepheme -4-carboxyulic acid in living body of the host, the following model experiment was carried out.
As a metabolism-activating enzyme, a rat liver homogenate (S-9, manufactured by Oriental Yeast Co.) was used in the following composition(referred to as S-9 mix, hereinafter):
After mixing 0.1 ml of a solution of the compound to be tested with 0.9 ml of S-9 mix or 0.9 ml of 0.1 M phosphoric acid buffer solution, the mixture was subjected to shaking culture for 20 min at 37° C. to prepare a test reaction solution for use in the following experiment.
Staphylococcus aureus IAM 1011 was inoculated to Mueller-Hinton'culture medium and the inoculum was cultured for 18 hours at 37° C. and after adjusting the number of the bacterial cells to 10^8 /ml of the culture medium, 50 times by weight of the Mueller-Hinton agar culture medium were added to the cultured medium to prepare flat culture plates. After placing a penicillin-cup of 8 mm in diameter on each of the thus prepared flat culture plates, 0.1 ml of the above-mentioned test reaction solution was introduced into the penicillin cup, and after leaving the system for 2 hours at 4° C., the system was incubated for 18 hours at 37° C., and the diameter of the growth-inhibition circle around the cup on the culture plate was determined.
By applying each of the thus determined diameters of the respective growth-inhibition circles on a diagram preliminarily prepared to indicate the relationship between the diameter of the growth-inhibition circle and the concentration of the compound in the culture medium before carrying out the culture, the concentration of the compound in the culture medium in the presence of S-9 mix was obtained(referred to as C2). […]

[5] = Acute mammalian toxicity (LD50, 7-day mortality); format: in vivo; conditions: mouse, in vivo
Protocol: (§5) Acute mammalian toxicity of the compound represented by the formula(I) and the compound represented by the formula(V) was investigated by orally or intraperitoneally administering a series of aqueous physiological saline solution containing each of the above-mentioned compounds to groups of ICR-JCL mice, and observing the toxic symptoms appearing on the mice including the mortality for 7 days. Then, from the cumulative mortality, LD50 values were calculated by Litchfield-Wilcoxon's graphical method.

ICR-JCL mice = experiment: Acute mammalian toxicity (LD50, 7-day mortality); format: in vivo; conditions: autopsy after 7 days, dead and live mice
Protocol: as §5

[6] = system: Proteus vulgaris IAM 1025; experiment: Minimum growth-inhibition concentration (MIC), Proteus vulgaris IAM 1025; format: cell-based; conditions: Mueller-Hinton agar, 18 to 24 hours at 37° C.
Protocol: as §1, §2, §3, §4

CON=C(C(=O)N[C@@H]1C(=O)N2C(C(=O)O)=C(CSc3nnc(N)s3)CS[C@H]12)c1csc(N)n1 [Example 1, 7-beta-[2-(2-amino-4-thiazolyl)-2-methoxyiminoacetamido]-3-(2-amino-1,3,4-thiadiazolyl-5-thiomethyl)-3-cepheme-4-carboxylic acid]
Anti-bacterial activity (MIC), in words (test bacterial species): strong and broad anti-bacterial activity | Minimum growth-inhibition concentration (MIC) on Serratia marcescens IAM 1223 [1]: 0.2 | Survival on the 7th day of infection (Escherichia coli): more than 55% | Rate of survival (Escherichia coli IFO): over 55% | Minimum growth-inhibition concentration (MIC) on Staphylococcus aureus IAM 1011 [2]: 0.78 | Minimum growth-inhibition concentration (MIC) on E. coli IFO 12734 (E. coli IFO 12734): < 0.05 | Minimum growth-inhibition concentration (MIC) on Pseudomonas aeruginosa IAM 1514 [3]: 12.5 | Minimum growth-inhibition concentration (MIC) on E. coli W 3636 (E. coli W 3636): 0.2 | Stability to the action of rat liver homogenate, in words [4]: stable | remaining at 20 min ([4]; rat, liver homogenate s-9 mix, 20 min at 37° C., read-out: Rate of maintaining the antibacterial activity): 80% | LD50 at 168 h ([5]; ip, read-out: LD50 (intraperitoneous)): > 10000 mg/kg | LD50 at 168 h ([5]; po, read-out: LD50 (oral)): > 10000 mg/kg | Autopsy findings (ICR-JCL mice): No noticeable information | Minimum growth-inhibition concentration (MIC) on Proteus vulgaris IAM 1025 [6]: < 0.05
